Values after ≈ are worked out from the molar mass of the structure shown.
How the values were obtained:
Assay type in all cases: cell-based
[1] = tested on: Salmonella enteritidis G 14; assay: Antibacterial activity, agar-dilution MIC, organism No. 12; conditions: Salmonella enterica, ENTERITIDIS; Organism No. 12, bouillon-agar; read-out: Minimum Inhibitory Concentration
How it was run: (§1)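 Values come from agar-dilution plates prepared with bouillon agar; they represent the least specimen concentration (μg/ml of medium) giving inhibition.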

[2] = tested on: Klebsiella pneumoniae PCI-602; assay: Antibacterial activity, agar-dilution MIC, organism No. 7; conditions: Klebsiella pneumoniae, PCI602; Organism No. 7, bouillon-agar; read-out: Minimum Inhibitory Concentration
How it was run: as §1

[3] = tested on: Enterobacter cloacae 963; assay: Antibacterial activity, agar-dilution MIC, organism No. 24; conditions: Enterobacter cloacae, 963; Organism No. 24, bouillon-agar; read-out: Minimum Inhibitory Concentration
How it was run: as §1

[4] = tested on: Staphylococcus aureus FDA 209PJc-1; assay: Antibacterial activity, agar-dilution MIC, organism No. 1; conditions: Staphylococcus aureus, FDA209PJC1; Organism No. 1, bouillon-agar; read-out: Minimum Inhibitory Concentration
How it was run: as §1

[5] = tested on: Proteus vulgaris HX-19; assay: Antibacterial activity, agar-dilution MIC, organism No. 21; conditions: Proteus vulgaris, HX19; Organism No. 21, bouillon-agar; read-out: Minimum Inhibitory Concentration
How it was run: as §1

[6] = tested on: Staphylococcus aureus Terajima; assay: Antibacterial activity, agar-dilution MIC, organism No. 2; conditions: Staphylococcus aureus; Organism No. 2, bouillon-agar; read-out: Minimum Inhibitory Concentration
How it was run: as §1

[7] = tested on: Escherichia coli K12 C600 IAM 1264; assay: Antibacterial activity, agar-dilution MIC, organism No. 6; conditions: Escherichia coli, IAM1264; Organism No. 6, bouillon-agar; read-out: Minimum Inhibitory Concentration
How it was run: as §1

[8] = tested on: Streptococcus pyogenes IFO 3340; assay: Antibacterial activity, agar-dilution MIC, organism No. 26; conditions: Streptococcus pyogenes, IFO3340; Organism No. 26, bouillon-agar; read-out: Minimum Inhibitory Concentration
How it was run: as §1

[9] = tested on: Pseudomonas aeruginosa NCTC 10490; assay: Antibacterial activity, agar-dilution MIC, organism No. 16; conditions: Pseudomonas aeruginosa, NCTC10490; Organism No. 16, bouillon-agar; read-out: Minimum Inhibitory Concentration
How it was run: as §1

[10] = tested on: Salmonella paratyphi-A 1015; assay: Antibacterial activity, agar-dilution MIC, organism No. 10; conditions: Salmonella enterica, PARATYPHI, read-out: Minimum Inhibitory Concentration
How it was run: as §1

[11] = tested on: Escherichia coli NIHJ-JC-2; assay: Antibacterial activity, agar-dilution MIC, organism No. 5; conditions: Escherichia coli, NIHJJC2; Organism No. 5, bouillon-agar; read-out: Minimum Inhibitory Concentration
How it was run: as §1

[12] = tested on: Pseudomonas aeruginosa IFO 3445; assay: Antibacterial activity, agar-dilution MIC, organism No. 15; conditions: Pseudomonas aeruginosa, IFO3445; Organism No. 15, bouillon-agar; read-out: Minimum Inhibitory Concentration
How it was run: as §1

[13] = tested on: Proteus vulgaris OX-19; assay: Antibacterial activity, agar-dilution MIC, organism No. 20; conditions: Proteus vulgaris, OX19; Organism No. 20, bouillon-agar; read-out: Minimum Inhibitory Concentration
How it was run: as §1

[14] = tested on: Streptococcus faecium IFO 3826; assay: Antibacterial activity, agar-dilution MIC, organism No. 27; conditions: Enterococcus faecium, IFO3826; Organism No. 27, bouillon-agar; read-out: Minimum Inhibitory Concentration
How it was run: as §1

[15] = tested on: Enterobacter aerogenes ATCC 13048; assay: Antibacterial activity, agar-dilution MIC, organism No. 23; conditions: Klebsiella aerogenes, ATCC13048; Organism No. 23, bouillon-agar; read-out: Minimum Inhibitory Concentration
How it was run: as §1

[16] = tested on: Salmonella typhimurium IID 971; assay: Antibacterial activity, agar-dilution MIC, organism No. 8; conditions: Salmonella enterica; Organism No. 8, bouillon-agar; read-out: Minimum Inhibitory Concentration
How it was run: as §1

[17] = tested on: Streptococcus pyogenes Cook; assay: Antibacterial activity, agar-dilution MIC, organism No. 4; conditions: Streptococcus pyogenes; Organism No. 4, bouillon-agar; read-out: Minimum Inhibitory Concentration
How it was run: as §1

[18] = tested on: Pseudomonas aeruginosa PAO 1; assay: Antibacterial activity, agar-dilution MIC, organism No. 17; conditions: Pseudomonas aeruginosa, PAO1; Organism No. 17, bouillon-agar; read-out: Minimum Inhibitory Concentration
How it was run: as §1

[19] = tested on: Proteus morganii IFO 3848; assay: Antibacterial activity, agar-dilution MIC, organism No. 18; conditions: Morganella morganii, IFO3848; Organism No. 18, bouillon-agar; read-out: Minimum Inhibitory Concentration
How it was run: as §1

[20] = tested on: Salmonella typhi 901; assay: Antibacterial activity, agar-dilution MIC, organism No. 9; conditions: Salmonella enterica, TYPHI, read-out: Minimum Inhibitory Concentration
How it was run: as §1

[21] = tested on: Serratia marcescens IAM 1184; assay: Antibacterial activity, agar-dilution MIC, organism No. 13; conditions: Serratia marcescens, IAM1184; Organism No. 13, bouillon-agar; read-out: Minimum Inhibitory Concentration
How it was run: as §1

[22] = tested on: Staphylococcus aureus MS 353; assay: Antibacterial activity, agar-dilution MIC, organism No. 3; conditions: Staphylococcus aureus, MS353; Organism No. 3, bouillon-agar; read-out: Minimum Inhibitory Concentration
How it was run: as §1

[23] = tested on: Bacillus subtilis ATCC 6633; assay: Antibacterial activity, agar-dilution MIC, organism No. 14; conditions: Bacillus subtilis, ATCC6633; Organism No. 14, bouillon-agar; read-out: Minimum Inhibitory Concentration
How it was run: as §1

[24] = tested on: Micrococcus luteus ATCC 9341; assay: Antibacterial activity, agar-dilution MIC, organism No. 25; conditions: Micrococcus luteus, ATCC9341; Organism No. 25, bouillon-agar; read-out: Minimum Inhibitory Concentration
How it was run: as §1

[25] = tested on: Proteus rettgeri IFO 3850; assay: Antibacterial activity, agar-dilution MIC, organism No. 22; conditions: Providencia rettgeri, IFO3850; Organism No. 22, bouillon-agar; read-out: Minimum Inhibitory Concentration
How it was run: as §1

[26] = tested on: Aspergillus niger IFO 6342; assay: Antifungal activity, agar-dilution MIC, organism No. 30; conditions: Aspergillus niger, IFO6342; Organism No. 30, bouillon-agar; read-out: Minimum Inhibitory Concentration
How it was run: as §1

[27] = tested on: Proteus mirabilis IFO 3849; assay: Antibacterial activity, agar-dilution MIC, organism No. 19; conditions: Proteus mirabilis, IFO3849; Organism No. 19, bouillon-agar; read-out: Minimum Inhibitory Concentration
How it was run: as §1

[28] = tested on: Candida albicans IAM 4905; assay: Antifungal activity, agar-dilution MIC, organism No. 29; conditions: Candida albicans, IAM4905; Organism No. 29, bouillon-agar; read-out: Minimum Inhibitory Concentration
How it was run: as §1

[29] = tested on: Mycoplasma pneumoniae IID817; assay: Antimycoplasmal activity, MIC by phenol red colour change, organism No. 28; conditions: Mycoplasma, IID817; Organism No. 28, PPLO broth + 1% glucose, 37° C.; read-out: Minimum Inhibitory Concentration (MIC)
Description: Mycoplasma pneumoniae IID817 was used as the test microorganism in a culture medium prepared by adding 1% of glucose to "PPLO broth (manufactured by Difco Co.) liquid culture medium" at 37° C. with phenol red as an indicator, thereby culturing the test microorganism.

[30] = tested on: Salmonella shottmuelleri 8006; assay: Antibacterial activity, agar-dilution MIC, organism No. 11; conditions: Salmonella, 8006; Organism No. 11, bouillon-agar; read-out: Minimum Inhibitory Concentration
How it was run: as §1

Row | Compound | MIC [1] [µg/mL] | MIC [2] [µg/mL] | MIC [3] [µg/mL] | MIC [4] [µg/mL] | MIC [5] [µg/mL] | MIC [6] [µg/mL] | MIC [7] [µg/mL] | MIC [8] [µg/mL] | MIC [9] [µg/mL] | MIC [10] [µg/mL] | MIC [11] [µg/mL] | MIC [12] [µg/mL] | MIC [13] [µg/mL] | MIC [14] [µg/mL] | MIC [15] [µg/mL] | MIC [16] [µg/mL] | MIC [17] [µg/mL] | MIC [18] [µg/mL] | MIC [19] [µg/mL] | MIC [20] [µg/mL] | also measured
1 | [C-]#[N+]C12CC3(/C=C/C(N)=O)OC3C1O2 (stereo not drawn) [Compound No. 19] | 3.13 (≈ 16.3 µM) | 12.5 (≈ 65 µM) | 6.25 (≈ 32.5 µM) | 6.25 (≈ 32.5 µM) | 1.56 (≈ 8.12 µM) | 25 (≈ 130 µM) | 6.25 (≈ 32.5 µM) | 6.25 (≈ 32.5 µM) | > 200 | 6.25 (≈ 32.5 µM) | 6.25 (≈ 32.5 µM) | 100 (≈ 520 µM) | 3.13 (≈ 16.3 µM) | 100 (≈ 520 µM) | 100 (≈ 520 µM) | 12.5 (≈ 65 µM) | 100 (≈ 520 µM) | 200 (≈ 1040 µM) | 3.13 (≈ 16.3 µM) | 1.56 (≈ 8.12 µM) | MIC [21]: 50 µg/mL (≈ 260 µM); MIC [22]: 6.25 µg/mL (≈ 32.5 µM); MIC [23]: 50 µg/mL (≈ 260 µM); MIC [24]: 25 µg/mL (≈ 130 µM); MIC [25]: 6.25 µg/mL (≈ 32.5 µM); MIC [26]: 6.25 µg/mL (≈ 32.5 µM); MIC [27]: 50 µg/mL (≈ 260 µM); MIC [28]: 12.5 µg/mL (≈ 65 µM); MIC [29]: < 0.2 µg/mL; MIC [30]: 12.5 µg/mL (≈ 65 µM)
2 | [C-]#[N+]C12CC3(/C=C/C(=O)N4CCOCC4)OC3C1O2 (stereo not drawn) [compound 22] | 12.5 (≈ 47.7 µM) | 50 (≈ 191 µM) | > 200 | 50 (≈ 191 µM) | 1.56 (≈ 5.95 µM) | 100 (≈ 381 µM) | 50 (≈ 191 µM) | 200 (≈ 763 µM) | > 200 | 25 (≈ 95.3 µM) | 50 (≈ 191 µM) | > 200 | 12.5 (≈ 47.7 µM) | > 200 | > 200 | 25 (≈ 95.3 µM) | 50 (≈ 191 µM) | > 200 | 6.25 (≈ 23.8 µM) | 6.25 (≈ 23.8 µM) | MIC [21]: > 200 µg/mL; MIC [22]: 50 µg/mL (≈ 191 µM); MIC [23]: 200 µg/mL (≈ 763 µM); MIC [24]: 0.39 µg/mL (≈ 1.49 µM); MIC [25]: > 200 µg/mL; MIC [26]: 3.13 µg/mL (≈ 11.9 µM); MIC [27]: > 200 µg/mL; MIC [28]: 6.25 µg/mL (≈ 23.8 µM); MIC [29]: 1.56 µg/mL; MIC [30]: 25 µg/mL (≈ 95.3 µM)
3 | [C-]#[N+]C12CC3(/C=C/C(=O)OCC(=O)c4ccc([N+](=O)[O-])cc4)OC3C1O2 (stereo not drawn) [compound 8] | 12.5 (≈ 35.1 µM) | 50 (≈ 140 µM) | > 100 | 12.5 (≈ 35.1 µM) | 12.5 (≈ 35.1 µM) | 25 (≈ 70.2 µM) | 25 (≈ 70.2 µM) | 50 (≈ 140 µM) | > 100 | 25 (≈ 70.2 µM) | 25 (≈ 70.2 µM) | > 100 | 12.5 (≈ 35.1 µM) | 25 (≈ 70.2 µM) | > 100 | 25 (≈ 70.2 µM) | 50 (≈ 140 µM) | > 100 | 25 (≈ 70.2 µM) | 12.5 (≈ 35.1 µM) | MIC [21]: 100 µg/mL (≈ 281 µM); MIC [22]: 12.5 µg/mL (≈ 35.1 µM); MIC [23]: 100 µg/mL (≈ 281 µM); MIC [24]: 12.5 µg/mL (≈ 35.1 µM); MIC [25]: > 100 µg/mL; MIC [26]: 100 µg/mL (≈ 281 µM); MIC [27]: 100 µg/mL (≈ 281 µM); MIC [28]: 25 µg/mL (≈ 70.2 µM); MIC [29]: 1.56 µg/mL; MIC [30]: 25 µg/mL (≈ 70.2 µM)
4 | [C-]#[N+]C12CC3(/C=C/C(=O)Nc4ccc(C(=O)O)cc4)OC3C1O2 (stereo not drawn) [compound 51] | 50 (≈ 160 µM) | 100 (≈ 320 µM) | > 200 | 12.5 (≈ 40 µM) | 12.5 (≈ 40 µM) | 12.5 (≈ 40 µM) | 200 (≈ 640 µM) | 25 (≈ 80.1 µM) | > 200 | 50 (≈ 160 µM) | 200 (≈ 640 µM) | > 200 | 12.5 (≈ 40 µM) | 12.5 (≈ 40 µM) | > 200 | 100 (≈ 320 µM) | 12.5 (≈ 40 µM) | > 200 | 1.56 (≈ 5 µM) | 50 (≈ 160 µM) | MIC [21]: > 200 µg/mL; MIC [22]: 6.25 µg/mL (≈ 20 µM); MIC [23]: 50 µg/mL (≈ 160 µM); MIC [24]: 1.56 µg/mL (≈ 5 µM); MIC [25]: > 200 µg/mL; MIC [26]: 100 µg/mL (≈ 320 µM); MIC [27]: > 200 µg/mL; MIC [28]: 100 µg/mL (≈ 320 µM); MIC [29]: < 0.2 µg/mL; MIC [30]: 50 µg/mL (≈ 160 µM)
